Data on 27 compounds can be found in patent US10889553B2, “Asymmetric triazole benzamide derivatives and the compositions and methods of treatment regarding the same” (NysnoBio Ireland DAC, priority 2017, dated 2021).

Where two headings read alike, the source gives them in different places.

This assay has as its system TOV-21G (ovarian). In words: Cancer cell proliferation assay (acid phosphatase). The assay is classed as cell-based. To be noted: Homo sapiens, TOV21G. In outline:
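Cells seeded at 4×10^4 cells/ml were incubated overnight at 37° C., 5% CO2, then exposed to compound at varying concentrations in triplicate for 72 hrs. Proliferation was read by acid phosphatase assay (p-nitrophenol phosphate, pH 5.5, 2 hours, 405 nm minus 620 nm) as percent inhibition versus DMSO controls.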

Where [1] appears, read: 72 h, Table 6A, 72 hrs, read-out: TOV-21G IC50.

With `C#Cc1ccc(C(=O)Nc2nc(NC(=O)c3cccc(N=[N+]=[N-])c3)n(-c3ccccc3)n2)cc1` [Compound 2], under setting [1], the IC50 was found to be 2.2 µM.
Turning to `Cc1ccccc1C(=O)Nc1nc(NC(=O)c2cccnc2)nn1-c1ccccc1` [Compound 6], the IC50 under setting [1] came to 1.2 µM.
Still for that read-out and setting: the same measure for `Cc1ccccc1C(=O)Nc1nc(NC(=O)c2ccno2)n(-c2ccccc2)n1` [Compound 7]: more than 1 µM; for `Cc1ccccc1C(=O)Nc1nc(NC(=O)c2ccccn2)nn1-c1ccccc1` [Compound 16]: 2.3 µM.
As to `Cc1ccccc1C(=O)Nc1nc(NC(=O)c2cnccn2)n(-c2ccccc2)n1` [Compound 17], the IC50 under setting [1] was more than 1 µM.
`Cc1ccccc1C(=O)Nc1nc(NC(=O)C2CCCN2)nn1-c1ccccc1` (stereo not drawn) [Compound 20]: the IC50 under setting [1] was more than 1 µM.
`Cc1ccc(C(=O)Nc2nc(NC(=O)c3ccc(C)cc3)n(-c3ccccc3)n2)cc1` [Compound 21]: the IC50 under setting [1] was found to be 2.5 µM.
Still for that read-out and setting: in the case of `COc1ccccc1C(=O)Nc1nc(NC(=O)c2ccccc2OC)n(-c2ccccc2)n1` [Compound 23] it was 2.4 µM; in that of `Cc1ccccc1C(=O)Nc1nc(NC(=O)c2ccccc2C)n(-c2ccc(F)c(F)c2)n1` [Compound 24], 0.97 µM.
Turning to `Cc1ccccc1C(=O)Nc1nc(NC(=O)c2ccccc2C)n(-c2ccc(C(F)(F)F)cc2)n1` [Compound 25], under setting [1], the IC50 is less than 0.1 µM.
Take `Cc1ccccc1C(=O)Nc1nc(NC(=O)c2ccccc2C)n(-c2ccccc2Cl)n1` [Compound 26]: the IC50 under setting [1] came out at 2.1 µM.
On the same count and under the same terms, in the case of `Cc1ccc(-n2nc(NC(=O)c3ccccc3C)nc2NC(=O)c2ccccc2C)cc1` [Compound 31] it was 2.3 µM; in that of `Cc1ccccc1C(=O)Nc1nc(NC(=O)c2ccccc2C)n(-c2ccccc2F)n1` [Compound 32], more than 2.5 µM; in that of `O=C(Nc1nc(NC(=O)c2ccncc2)n(-c2ccccc2)n1)c1ccncc1` [Compound 33], more than 2.5 µM.
In the case of `Cc1ccccc1C(=O)Nc1nc(NC(=O)c2ccncc2)nn1-c1ccccc1` [Compound 34], the IC50 under setting [1] came out at 1.5 µM.
Still for that read-out and setting: in the case of `Cc1ccccc1C(=O)Nc1nc(NC(=O)c2ccccc2C)n(-c2ccc(C#N)cc2)n1` [Compound 35] it was 1.4 µM; in that of `Cc1ccccc1C(=O)Nc1nc(NC(=O)c2ccccc2C)n(-c2cccc(Cl)c2)n1` [Compound 36], 0.3 µM; in that of `COc1ccc(C(=O)Nc2nc(NC(=O)c3ccc(OC)cc3)n(-c3ccccc3)n2)cc1` [Compound 37], 1.9 µM.
Still for that read-out and setting: in the case of `Cc1cccc(-n2nc(NC(=O)c3ccccc3C)nc2NC(=O)c2ccccc2C)c1` [Compound 38] it was 1.7 µM; in that of `Cc1ccccc1C(=O)Nc1nc(NC(=O)c2ccccc2C)n(-c2cccc(F)c2)n1` [Compound 39], 1.5 µM; in that of `O=C(Nc1nc(NC(=O)c2cccnc2)n(-c2ccccc2)n1)c1cccnc1` [Compound 40], more than 2.5 µM.
With `O=C(Nc1nc(NC(=O)c2ccccn2)n(-c2ccccc2)n1)c1ccccn1` [Compound 41], the IC50 under setting [1] is more than 2.5 µM.
Broadly, the EC50 is the concentration giving half of the maximal effect. Turning to `Cc1ccccc1C(=O)Nc1nc(NC(=O)c2ccccc2C)n(-c2ccc(OC(F)(F)F)cc2)n1` [Compound 42, N,N′-(1-(4-(trifluoromethoxy)phenyl)-1H-1,2,4-triazole-3,5-diyl)bis(2-methylbenzamide)], the IC50 is, setting by setting: (Table 6A, 72 hrs, read-out: TOV-21G IC50) 0.25 µM; (Table 6C, data of FIG. 2, read-out: IC50 (μM) TOV-21G (ovarian)) 0.15 µM; (Table 6E, read-out: Proliferation IC50 (nM) Ovarian TOV21G) 0.109 µM. The midpoint of the response (Table 6D, another set of cell proliferation assay), the EC50, lay at 74 nM.
Consider `Cc1ccccc1C(=O)Nc1nc(NC(=O)c2ccccc2C)n(-c2ccc(N3CCCCC3)cc2)n1` [Compound 44], for which, under setting [1], the IC50 was 1.9 µM.
Same read-out and setting: in the case of `Cc1ccccc1C(=O)Nc1nc(NC(=O)c2ccccc2C)n(-c2ccc(F)cc2F)n1` [Compound 46] it was 2.4 µM.
For the compound `Cc1ccccc1C(=O)Nc1nc(NCc2ccccc2)nn1-c1ccc(C(F)(F)F)cc1` [Compound 102], under setting [1], the IC50 was more than 2.5 µM.
Consider `Cc1ccnc(-c2nc(NC(=O)c3ccccc3C)n(-c3ccccc3)n2)c1` [Compound 124], for which the IC50 under setting [1] was found to be 0.59 µM.
